These results are taken from ChEMBL document CHEMBL1127765, “16-propyl derivatives of estradiol as inhibitors of 17-hydroxysteroid dehydrogenase type 1” (Bioorg Med Chem Lett, 1994).

By IC50 is commonly meant the point on the concentration scale where inhibition reaches its midpoint. Read a high IC50 as weaker potency. As a reminder, the inhibition is the relative decrease from the control value, in per cent.

In experiment [1] the target is T1, 17-beta-hydroxysteroid dehydrogenase type 1 (Homo sapiens, UniProt P14061).
T1 sequence (P14061 whole entry): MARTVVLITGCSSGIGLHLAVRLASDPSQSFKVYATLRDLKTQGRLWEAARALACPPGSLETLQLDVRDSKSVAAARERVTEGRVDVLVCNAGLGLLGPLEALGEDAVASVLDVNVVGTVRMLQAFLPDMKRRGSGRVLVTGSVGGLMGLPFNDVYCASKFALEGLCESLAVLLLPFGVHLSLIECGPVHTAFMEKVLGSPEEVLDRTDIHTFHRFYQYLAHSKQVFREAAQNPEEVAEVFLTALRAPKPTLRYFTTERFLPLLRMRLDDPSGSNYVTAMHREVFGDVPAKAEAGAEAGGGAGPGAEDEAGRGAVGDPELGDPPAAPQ
The experiment in a line: Compound was tested for the inhibition of 17-beta-hydroxysteroid dehydrogenase type 1(17-beta-HSD type 1).

In experiment [2] the target is T2, 17-beta-hydroxysteroid dehydrogenase type 1 (Homo sapiens) (UniProt P14061).
T2 sequence (whole entry): T1 sequence (P14061 whole entry)
Briefly: Compound was tested for the inhibition of 17-beta-hydroxysteroid dehydrogenase type 1(17-beta-HSD type 1) at 1 uM concentration.

In experiment [3] the target is T2, 17-beta-hydroxysteroid dehydrogenase type 1 (Homo sapiens). Briefly: Compound was tested for the inhibition of 17-beta-hydroxysteroid dehydrogenase type 1(17-beta-HSD type 1) at 10 uM concentration.

`C[C@]12CC[C@@H]3c4ccc(O)cc4CC[C@H]3[C@@H]1C[C@@H](CCCBr)[C@@H]2O` showed a 50% inhibitory concentration (IC50) in experiment [1] of 460 nM. The inhibition worked out at 70% in experiment [2] and 94% in experiment [3].

For the compound `C[C@]12CC[C@@H]3c4ccc(O)cc4CC[C@H]3[C@@H]1C[C@@H](CCCF)[C@@H]2O`, inhibition in experiment [1] was half-maximal at 4300 nM (IC50). Further, the results for the inhibition in experiment [2] and in experiment [3] were 49% and 81%, respectively.

As for `C[C@]12CC[C@@H]3c4ccc(O)cc4CC[C@H]3[C@@H]1C[C@@H](CCCI)[C@@H]2O`, the half-maximal inhibitory concentration (IC50) in experiment [1] is 420 nM. Moreover, the inhibition in experiment [2] came to 68%; in experiment [3] it was 92%.

For `C[C@]12CC[C@@H]3c4ccc(O)cc4CC[C@H]3[C@@H]1C[C@@H](CCCSC#N)[C@@H]2O`, in experiment [1], the midpoint of inhibition, the IC50, lay at 1150 nM. Besides, the inhibition in experiment [2] stood at 82%; in experiment [3], 95%.

For `CCC[C@@H]1C[C@H]2[C@@H]3CCc4cc(O)ccc4[C@H]3CC[C@]2(C)[C@H]1O`, the inhibition in experiment [2] worked out at 29%; in experiment [3], 69%.

As to `C[C@]12CC[C@@H]3c4ccc(O)cc4CC[C@H]3[C@@H]1C[C@@H](CCCCl)[C@@H]2O`, in experiment [1], half-maximal inhibition (IC50) was put at 1000 nM. The inhibition in experiment [2] amounted to 88%; in experiment [3] it was 92%.

As for `C=CC[C@@H]1C[C@H]2[C@@H]3CCc4cc(O)ccc4[C@H]3CC[C@]2(C)[C@H]1O`, the inhibition in experiment [2] is 26%; in experiment [3], 63%.

For `C[C@]12CC[C@@H]3c4ccc(O)cc4CC[C@H]3[C@@H]1C[C@@H](CCCO)[C@@H]2O`, the inhibition in experiment [2] came out at 17%; in experiment [3], 57%.
